# Data reported in US12459918B2, “Isoquinolinone derivatives serving as rock protein kinase inhibitors and use thereof” (GUANGZHOU OCUSUN OPHTHALMIC BIOTECHNOLOGY CO., LTD., priority 2019, dated 2025).
# System: New Zealand rabbits with normal intraocular pressure
# Experiment: Intraocular pressure reduction experiment in New Zealand rabbits with normal intraocular pressure
# Assay type: in vivo
# Details: for Intraocular pressure in the left eye: 20 mg/mL group, left eye (saline or solvent); for Intraocular pressure in the right eye: 20 mg/mL in right eye; for Reduction magnitude of intraocular pressure: 20 mg/mL, left minus right eye
# Description: Experimental Example 2. Intraocular Pressure Reduction Experiment in New Zealand Rabbits with Normal Intraocular Pressure
# Rabbits with normal intraocular pressure were adopted to screen intraocular pressure reduction actions of the potential compounds by eye-drop administration.
# Male New Zealand rabbits, aged 97-127 days, weighted 2.65-3.5 kg, purchased from PizhouDongfang Breeding Co. Ltd.
# The male New Zealand rabbits were randomly divided into 8 rabbits/per group using a computer-generated randomization method Animals in each group were eye-dropped with different test samples in the right eye, and normal saline or solvent in the left eye, and the volume of the administration was both 50 μL/eye. The intraocular pressure of the animals was measured before administration and in 1, 2, 4, 6, 8 and 10 hours after the administration, respectively.
structure (smiles),measurement,setting,value
Cc1cn(COC(=O)c2ccccc2)c(=O)c2cccc(S(=O)(=O)N3CC[C@H](N)C3)c12 [Compound 64],Intraocular pressure in the left eye,1 hour after administration,11.96 mmHg
same,Intraocular pressure in the left eye,2 hours after administration,9.79 mmHg
same,Intraocular pressure in the left eye,4 hours after administration,11.50 mmHg
same,Intraocular pressure in the left eye,6 hours after administration,11.54 mmHg
same,Intraocular pressure in the left eye,8 hours after administration,11.75 mmHg
same,Intraocular pressure in the left eye,10 hours after administration,11.88 mmHg
same,Intraocular pressure in the left eye,before administration,11.29 mmHg
same,Intraocular pressure in the right eye,1 hour after administration,11.54 mmHg
same,Intraocular pressure in the right eye,2 hours after administration,7.42 mmHg
same,Intraocular pressure in the right eye,4 hours after administration,7.13 mmHg
same,Intraocular pressure in the right eye,6 hours after administration,7.38 mmHg
same,Intraocular pressure in the right eye,8 hours after administration,7.63 mmHg
same,Intraocular pressure in the right eye,10 hours after administration,9.71 mmHg
same,Intraocular pressure in the right eye,before administration,12.04 mmHg
same,Reduction magnitude of intraocular pressure,1 hour after administration,0.42 mmHg
same,Reduction magnitude of intraocular pressure,2 hours after administration,2.37 mmHg
same,Reduction magnitude of intraocular pressure,4 hours after administration,4.37 mmHg
same,Reduction magnitude of intraocular pressure,6 hours after administration,4.16 mmHg
same,Reduction magnitude of intraocular pressure,8 hours after administration,4.12 mmHg
same,Reduction magnitude of intraocular pressure,10 hours after administration,2.17 mmHg
same,Reduction magnitude of intraocular pressure,before administration,−0.75 mmHg
